One data set addresses T1, human liver FBPase (Homo sapiens, UniProt P09467).
T1 construct: made in house; host or cells: E. coli BL21
T1 sequence (P09467 2-338 limits assumed): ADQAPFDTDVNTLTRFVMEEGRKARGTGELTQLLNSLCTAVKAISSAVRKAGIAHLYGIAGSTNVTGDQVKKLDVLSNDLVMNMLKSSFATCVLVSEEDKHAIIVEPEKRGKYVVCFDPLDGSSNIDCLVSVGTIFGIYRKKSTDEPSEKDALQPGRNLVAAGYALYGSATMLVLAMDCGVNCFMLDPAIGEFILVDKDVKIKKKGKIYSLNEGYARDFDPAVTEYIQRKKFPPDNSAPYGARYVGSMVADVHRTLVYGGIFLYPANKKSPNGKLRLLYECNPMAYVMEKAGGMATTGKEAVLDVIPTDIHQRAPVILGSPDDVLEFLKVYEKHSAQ
Put plainly: Inhibition of human liver FBPase (coupled spectrophotometric assay). In kind it is biochemical. As to conditions: for inhibition of hlFBPase (FIG. 2): result in words.

The target in a further data set is T2, rat liver FBPase (Rattus norvegicus, UniProt P19112).
T2 construct: made in house; host or cells: E. coli BL21
T2 sequence (P19112 2-363 limits assumed): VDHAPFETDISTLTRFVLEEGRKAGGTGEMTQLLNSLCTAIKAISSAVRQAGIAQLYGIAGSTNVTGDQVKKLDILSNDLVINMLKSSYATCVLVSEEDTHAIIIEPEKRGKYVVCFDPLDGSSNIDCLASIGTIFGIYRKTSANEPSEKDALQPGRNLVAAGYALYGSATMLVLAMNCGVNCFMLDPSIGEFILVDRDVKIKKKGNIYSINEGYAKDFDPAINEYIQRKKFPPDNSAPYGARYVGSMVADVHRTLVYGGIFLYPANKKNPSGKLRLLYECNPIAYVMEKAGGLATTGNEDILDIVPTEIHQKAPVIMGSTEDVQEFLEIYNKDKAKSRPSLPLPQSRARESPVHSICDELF
Put plainly: In vitro inhibition of rat liver FBPase. In kind it is biochemical. As to the method:
(§1) Mouse liver FBPase was obtained by homogenizing freshly isolated mouse liver in 100 mM Tris-HCl buffer, pH 7.4, containing 1 mM EGTA, and 10% glycerol. […] This fraction was redissolved in the homogenization buffer and desalted on a PD-10 gel filtration column (Biorad) eluted with same. This partially purified fraction was used for enzyme assays. Both rat liver and mouse liver FBPase were assayed as described for human liver FBPase.

A further data set concerns the target T3, mouse liver FBPase (Mus musculus, UniProt Q9QXD6).
T3 construct: This partially purified fraction was used for enzyme assays; from tissue; host or cells: mouse liver
T3 sequence (Q9QXD6 2-338 limits assumed): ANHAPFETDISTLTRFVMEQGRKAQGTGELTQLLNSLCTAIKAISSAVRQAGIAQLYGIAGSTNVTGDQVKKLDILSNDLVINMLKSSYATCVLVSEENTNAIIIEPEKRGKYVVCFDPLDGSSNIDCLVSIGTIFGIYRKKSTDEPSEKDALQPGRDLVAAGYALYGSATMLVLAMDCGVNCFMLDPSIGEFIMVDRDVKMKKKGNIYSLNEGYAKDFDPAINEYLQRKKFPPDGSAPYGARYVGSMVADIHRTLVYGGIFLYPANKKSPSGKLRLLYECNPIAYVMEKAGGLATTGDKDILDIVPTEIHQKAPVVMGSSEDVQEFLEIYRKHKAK
Put plainly: In vitro inhibition of mouse liver FBPase. In kind it is biochemical. On the procedure: as §1

The target in data set [1] is T4, allosteric AMP binding site of hlFBPase (Homo sapiens, UniProt P09467).
T4 construct: made in house; host or cells: E. coli BL21
T4 sequence (P09467 2-338 limits assumed): T1 sequence (P09467 2-338 limits assumed)
Put plainly: AMP site binding: displacement of 3H-AMP from hlFBPase. The settings on record: for EC50: 3H-AMP, hlFBPase, read-out: ED50 for AMP displacement; for displacement of AMP from hlFBPase (FIG. 3): result in words. As to the method:
To determine whether compounds bind to the allosteric AMP binding site of hlFBPase, the enzyme was incubated with radiolabeled AMP in the presence of a range of test compound concentrations. The reaction mixtures consisted of […] ^3H-AMP (54 mCi/mmol) and […] test compound in 25 mM Tris-HCl, pH 7.4, 100 mM KCl and 1 mM MgCl2. 1.45 mg of homogeneous FBPase (±1 nmole) was added last. After a 1 minute incubation, AMP bound to FBPase was separated from unbound AMP by means of a centrifugal ultrafiltration unit (“Ultrafree-MC”, Millipore) used according to the instructions of the manufacturer. The radioactivity in aliquots (100 μl) of the upper compartment of the unit (the retentate, which contains enzyme and label) and the lower compartment (the filtrate, which contains unbound label) were quantified using a Beckman liquid scintillation counter. The amount of AMP bound to the enzyme was estimated by comparing the counts in the filtrate (the unbound label) to the total counts in the retentate.
A general note: Loss of bound radioactivity is the signal in a displacement assay; it reports binding, not function.

Another data set deals with rat hepatocytes. Put plainly: Inhibition of gluconeogenesis (glucose production from lactate/pyruvate) in rat hepatocytes. In kind it is cell-based. The settings on record: from lactate/pyruvate, isolated rat hepatocytes. On the procedure:
Hepatocytes were prepared from overnight fasted Sprague-Dawley rats (250-300 g) according to the procedure of Berry and Friend (Berry, M. N., Friend, D. S., J. Cell. Biol. 1969, 43, 506-520) as modified by Groen (Groen, […]., Eur. J. Biochem. 1982, 122, 87-93). […] Incubations were carried out in a 95% oxygen, 5% carbon dioxide atmosphere in closed, 50-mL Falcon tubes submerged in a rapidly shaking water bath (37° C.). After 1 hour, an aliquot (0.25 mL) was removed, transferred to an Eppendorf tube and centrifuged. 50 μl of supernatant was then assayed for glucose content using a Sigma Glucose Oxidase kit as per the manufacturer's instructions.

Data set [2] is described as follows: Estimation of the oral bioavailability of prodrugs of phosphonic acids (urinary recovery). The settings on record: rat, estimated from urinary recovery vs intravenous parent. In kind it is in vivo, rat. On the procedure:
Prodrugs were dissolved in 10% ethanol/90% polyethylene glycol (mw 400) and administered by oral gavage at doses of approximately 20 or 40 mg/kg parent compound equivalents to 6-hour fasted, Sprague Dawley rats (220-240 g). The rats were subsequently placed in metabolic cages and urine was collected for 24 hours. The quantity of parent compound excreted into urine was determined by HPLC analysis. An ODS column eluted with a gradient from potassium phosphate buffer, pH 5.5 to acetonitrile was employed for these measurements. Detection was at 310-325 nm. […] Parent compounds were typically dissolved in dimethyl sulfoxide, and administered via the tail vein in animals that were briefly anesthetized with halothane.

Regarding `Nc1ncnc2c1ncn2[C@@H]1O[C@H](COP(=O)(O)O)[C@@H](O)[C@H]1O` [AMP, reference compound], on human liver FBPase, 1 µM corresponded to half-maximal inhibition (IC50) and the “inhibition of hlFBPase (FIG. 2)” value is on record as “dose-dependent inhibition”.

For `Nc1ncnc2c1nc(-c1ccc(P(=O)(O)O)o1)n2CCC1CCCCC1` [Compound 2.2, N^9-(2-cyclohexylethyl)-8-(2-(5-phosphono)furanyl)adenine], the IC50 at rat liver FBPase was over 20 µM; on mouse liver FBPase, over 20 µM; in the data set with rat hepatocytes (Hepatocyte), 90 µM. In addition, the EC50 in data set [1] was 35 µM. Also, the “displacement of AMP from hlFBPase (FIG. 3)” value in data set [1] is recorded as “displaced AMP from hlFBPase in a dose-dependent manner”.

As for `Nc1ncnc2c1nc(-c1ccc(P(=O)(O)O)o1)n2Cc1ccc2ccccc2c1` [Compound 2.3, N^9-(2-naphthylmethyl)-8-(2-(5-phosphono)furanyl)adenine], the IC50 on human liver FBPase is 3.3 µM; against rat liver FBPase, over 20 µM; against mouse liver FBPase it was over 20 µM.

As for `CCn1c(-c2ccc(P(=O)(O)O)o2)nc2c(N)ncnc21` [Compound 2.5, N^9-ethyl-8-(2-(5-phosphono)furanyl)adenine], the “inhibition of hlFBPase (FIG. 2)” value on human liver FBPase was “dose-dependent inhibition”.

With `CC(C)Cn1c(-c2ccc(P(=O)(O)O)o2)nc2c(N)ncnc21` [Compound 2.6, N^9-isobutyl-8-(2-(5-phosphono)furanyl)adenine], in the data set on rat hepatocytes, the IC50 came out at 18 µM. In other words, the double-digit micromolar range.

Turning to `Nc1ncnc2c1nc(-c1ccc(P(=O)(O)O)o1)n2C1CCCC1` [Compound 2.10, N^9-cyclopentyl-8-(2-(5-phosphono)furanyl)adenine], the IC50 is 2 µM against human liver FBPase, over 20 µM at mouse liver FBPase and 24 µM with rat hepatocytes (Hepatocyte).

Consider `CC(C)(CO)Cn1c(-c2ccc(P(=O)(O)O)o2)nc2c(N)ncnc21` [Compound 2.13, N^9-(1-(3-hydroxyl-2,2-dimethyl)propyl)-8-(2-(5-phosphono)-furanyl)adenine], for which the values for the half-maximal inhibitory concentration (IC50) against human liver FBPase, against mouse liver FBPase and in the data set on rat hepatocytes (Hepatocyte) were 4.5 µM, over 20 µM and 50 µM, respectively. For the same molecule, the “inhibition of hlFBPase (FIG. 2)” value against human liver FBPase was “dose-dependent inhibition”.

For the molecule `CC(C)(CCl)Cn1c(-c2ccc(P(=O)(O)O)o2)nc2c(N)ncnc21` [Compound 2.14, N^9-(1-(3-chloro-2,2-dimethyl)propyl)-8-(2-(5-phosphono)-furanyl)adenine], the half-inhibitory concentration (IC50) against human liver FBPase was 0.9 µM; against rat liver FBPase, over 20 µM; against mouse liver FBPase, over 20 µM; with rat hepatocytes (Hepatocyte) it was 7.5 µM.

For the molecule `CC1(C)C=CCC(C)(Cn2c(-c3ccc(P(=O)(O)O)o3)nc3c(N)ncnc32)C1` (centres unmarked) [Compound 2.16, N^9-(1,5,5-trimethyl-3-cyclohexenyl)methyl-8-(2-(5-phosphono)furanyl)-adenine], the half-maximal inhibitory concentration (IC50) against human liver FBPase was 1.4 µM; against rat liver FBPase it was over 20 µM; against mouse liver FBPase it was over 20 µM; with rat hepatocytes (Hepatocyte), 12 µM.

As for `Nc1ncnc2c1nc(NCCP(=O)(O)O)n2[C@@H]1O[C@H](CO)[C@@H](O)[C@H]1O` [Compound 4.1, 8-(2-phosphonoethylamino)-adenosine], the IC50 against human liver FBPase is 100 µM; against rat liver FBPase it was over 20 µM; on mouse liver FBPase, over 20 µM.

`CC(C)(C)Cn1c(COCP(=O)(O)O)nc2c(N)ncnc21` [Compound 5.5, N^9-neopentyl-8-(phosphonomethoxymethyl)-adenine]: the values for the IC50 on human liver FBPase, against rat liver FBPase and against mouse liver FBPase were 10 µM, over 20 µM and over 20 µM, respectively.

As to `Nc1ncnc2c1nc(SCP(=O)(O)O)n2CCC1CCCCC1` [Compound 8.1, N^9-(2-cyclohexylethyl)-8-(phosphonomethylthio)adenine], the IC50 against human liver FBPase is 23 µM; at rat liver FBPase, over 20 µM; against mouse liver FBPase it was over 20 µM.

Regarding `CN(C)c1ncnc2c1nc(-c1ccc(P(=O)(O)O)o1)n2CCc1ccccc1` [Compound 10.1, 6-Dimethylamino-N^9-phenethyl-8-(2-(5-phosphono)furanyl)purine], the IC50 against human liver FBPase is 50 µM; on rat liver FBPase it was over 20 µM; on mouse liver FBPase it was over 20 µM.

On to `CSc1nc(N)c2nc(-c3ccc(P(=O)(O)O)o3)n(CC(C)C)c2n1` [Compound 11.1, 6-amino-N^9-isobutyl-2-methylthio-8-(2-(5-phosphono)-furanyl)purine], for which the IC50 at human liver FBPase was 0.7 µM; against mouse liver FBPase, over 20 µM.

With `CC(C)(C)Cn1c(-c2oc(P(=O)(O)O)c(Cl)c2Cl)nc2c(N)ncnc21` [Compound 12.1, 6-amino-N^9-neopentyl-8-(2-(3,4-dichloro-5-phosphono)furanyl)purine], the IC50 on human liver FBPase is 13 µM; against mouse liver FBPase, over 100 µM.

Take `CC(C)(C)Cn1c(-c2ccc(P(=O)(OCOC(=O)C(C)(C)C)OCOC(=O)C(C)(C)C)o2)nc2c(N)ncnc21` [Compound 16.5, 6-Amino-9-neopentyl-8-(2-(5-dipivaloxymethylphosphono)furanyl)purine]: the oral bioavailability in data set [2] was 5.3%.

As to `NC(=O)c1ncn([C@@H]2O[C@H](COP(=O)(O)O)[C@@H](O)[C@H]2O)c1N` [ZMP, aminoimidazolecarboxamideriboside monophosphate, reference compound], the IC50 on human liver FBPase was 12 µM. Moreover, in data set [1], the EC50 came to 250 µM and the “displacement of AMP from hlFBPase (FIG. 3)” value is “displaced AMP from hlFBPase in a dose-dependent manner”.

For orientation: IC50 means the concentration needed to halve the response being measured. Lower therefore signals inhibition by little substance.

Values taken from patent publication US7285543B2, “Purine inhibitors of fructose-1,6-bisphosphatase” (Metabasis Therapeutics, Inc., priority 1997, dated 2007).
